# How the values were obtained:
# Test in all cases: KINOMEscan binding assay
# Settings in all cases: read-out: % Ctrl @ 10000 nM
# [1] = molecular target: CSNK1G1 (Homo sapiens, UniProt Q9HCP0)
# [2] = molecular target: BMPR2 (Homo sapiens, UniProt Q13873)
# [3] = molecular target: T1, MAP4K4 (Homo sapiens, UniProt O95819)
# T1 construct: T7 phage fusion (most assays) or DNA label after HEK293 expression; purchased DiscoveRx (KINOMEscan, LeadHunter Discovery services); host or cells: T7 phage in E. coli (BL21-derived) or HEK293
# [4] = molecular target: KIT (D816H) (Homo sapiens, UniProt P10721, D816H)
# [5] = molecular target: T2, WNK3 (Homo sapiens, UniProt Q9BYP7)
# T2 construct: purchased DiscoveRx (KINOMEscan, LeadHunter Discovery services)
# [6] = molecular target: SRPK3 (Homo sapiens, UniProt Q9UPE1)
# [7] = molecular target: TYK2 JH1domain-catalytic (Homo sapiens, UniProt P29597)
# [8] = molecular target: DAPK1 (Homo sapiens, UniProt P53355)
# [9] = molecular target: T3, MAP4K2 (Homo sapiens, UniProt Q12851)
# T3 construct: T7 phage fusion (most assays) or DNA label after HEK293 expression; purchased DiscoveRx (KINOMEscan, LeadHunter Discovery services); host or cells: T7 phage in E. coli (BL21-derived) or HEK293
# [10] = molecular target: TESK1 (Homo sapiens, UniProt Q15569)
# [11] = molecular target: SLK (Homo sapiens, UniProt Q9H2G2)
# [12] = molecular target: T4, LZK (Homo sapiens, UniProt O43283)
# T4 construct: T7 phage fusion (most assays) or DNA label after HEK293 expression; purchased DiscoveRx (KINOMEscan, LeadHunter Discovery services); host or cells: T7 phage in E. coli (BL21-derived) or HEK293
# [13] = molecular target: EPHB6 (Homo sapiens, UniProt O15197)
# [14] = molecular target: PRKG1 (Homo sapiens, UniProt Q13976)
# [15] = molecular target: PFTK1 (Homo sapiens, UniProt O94921)
# [16] = molecular target: GSK3B (Homo sapiens, UniProt P49841)
# [17] = molecular target: PRKCH (Homo sapiens, UniProt P24723)
# [18] = molecular target: IKK-beta (Homo sapiens, UniProt O14920)
# IKK-beta, sequence (O14920 whole entry): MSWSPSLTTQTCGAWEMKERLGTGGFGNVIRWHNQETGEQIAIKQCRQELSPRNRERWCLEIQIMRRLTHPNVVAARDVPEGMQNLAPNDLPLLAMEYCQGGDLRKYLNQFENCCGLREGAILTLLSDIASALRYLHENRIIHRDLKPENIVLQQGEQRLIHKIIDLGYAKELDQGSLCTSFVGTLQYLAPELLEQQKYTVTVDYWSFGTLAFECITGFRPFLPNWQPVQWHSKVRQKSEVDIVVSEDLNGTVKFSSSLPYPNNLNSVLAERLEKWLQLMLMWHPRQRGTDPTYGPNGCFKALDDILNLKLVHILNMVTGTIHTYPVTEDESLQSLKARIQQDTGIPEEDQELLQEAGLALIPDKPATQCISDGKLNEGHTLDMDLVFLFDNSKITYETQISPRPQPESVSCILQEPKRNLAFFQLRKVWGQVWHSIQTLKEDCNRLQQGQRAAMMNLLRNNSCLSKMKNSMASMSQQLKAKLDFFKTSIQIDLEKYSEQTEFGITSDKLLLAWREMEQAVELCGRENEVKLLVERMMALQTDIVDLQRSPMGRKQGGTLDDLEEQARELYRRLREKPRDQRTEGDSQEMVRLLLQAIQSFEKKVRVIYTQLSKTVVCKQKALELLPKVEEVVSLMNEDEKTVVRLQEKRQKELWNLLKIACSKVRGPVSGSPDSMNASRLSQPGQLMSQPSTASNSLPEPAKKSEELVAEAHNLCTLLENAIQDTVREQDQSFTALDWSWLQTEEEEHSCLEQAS
# [19] = molecular target: NEK10 (Homo sapiens, UniProt Q6ZWH5)
# [20] = molecular target: NEK1 (Homo sapiens, UniProt Q96PY6)
# [21] = molecular target: TXK (Homo sapiens, UniProt P42681)
# [22] = molecular target: ROCK2 (Homo sapiens, UniProt O75116)
# [23] = molecular target: RSK2 Kin.Dom.2-C-terminal (Homo sapiens, UniProt P51812)
# RSK2 Kin.Dom.2-C-terminal, sequence (P51812 422-679 limits assumed): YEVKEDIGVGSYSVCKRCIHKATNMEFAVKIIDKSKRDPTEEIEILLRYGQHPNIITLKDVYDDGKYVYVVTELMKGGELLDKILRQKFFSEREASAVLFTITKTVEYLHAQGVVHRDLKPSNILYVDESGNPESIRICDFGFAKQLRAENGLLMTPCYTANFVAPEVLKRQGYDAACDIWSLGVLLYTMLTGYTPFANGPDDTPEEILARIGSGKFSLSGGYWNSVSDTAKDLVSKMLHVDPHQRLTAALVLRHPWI
# [24] = molecular target: BRK (Homo sapiens, UniProt Q13882)
# [25] = molecular target: PDGFRA (Homo sapiens, UniProt P16234)
# [26] = molecular target: OSR1 (Homo sapiens, UniProt O95747)
# [27] = molecular target: EPHA6 (Homo sapiens, UniProt Q9UF33)
# [28] = molecular target: FYN (Homo sapiens, UniProt P06241)
# [29] = molecular target: ABL1 (E255K) phosphorylated (Homo sapiens, UniProt P00519, E255K)
# [30] = molecular target: ABL1 (F317L) non-phosphorylated (Homo sapiens, UniProt P00519, F317L)
# [31] = molecular target: CAMKK1 (Homo sapiens, UniProt Q8N5S9)
# CAMKK1, sequence (Q8N5S9 whole entry): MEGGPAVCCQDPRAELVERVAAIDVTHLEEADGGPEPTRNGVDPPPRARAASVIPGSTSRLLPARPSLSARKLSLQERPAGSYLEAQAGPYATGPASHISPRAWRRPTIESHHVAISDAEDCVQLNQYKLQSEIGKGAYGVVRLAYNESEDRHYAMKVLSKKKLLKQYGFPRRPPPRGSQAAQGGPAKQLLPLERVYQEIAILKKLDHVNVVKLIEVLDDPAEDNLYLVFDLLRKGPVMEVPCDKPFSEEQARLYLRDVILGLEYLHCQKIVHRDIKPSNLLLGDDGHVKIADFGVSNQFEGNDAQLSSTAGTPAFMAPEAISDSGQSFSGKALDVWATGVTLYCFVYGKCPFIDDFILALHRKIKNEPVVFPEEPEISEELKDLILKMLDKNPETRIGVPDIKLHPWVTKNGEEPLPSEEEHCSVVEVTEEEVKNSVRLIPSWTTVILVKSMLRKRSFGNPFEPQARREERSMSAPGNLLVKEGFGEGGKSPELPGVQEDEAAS
# [32] = molecular target: EPHB3 (Homo sapiens, UniProt P54753)
# [33] = molecular target: NIM1 (Homo sapiens, UniProt Q8IY84)
# [34] = molecular target: INSRR (Homo sapiens, UniProt P14616)
# [35] = molecular target: S6K1 (Homo sapiens, UniProt P23443)
# [36] = molecular target: BLK (Homo sapiens, UniProt P51451)
# [37] = molecular target: INSR (Homo sapiens, UniProt P06213)
# INSR, sequence (P06213 28-1382): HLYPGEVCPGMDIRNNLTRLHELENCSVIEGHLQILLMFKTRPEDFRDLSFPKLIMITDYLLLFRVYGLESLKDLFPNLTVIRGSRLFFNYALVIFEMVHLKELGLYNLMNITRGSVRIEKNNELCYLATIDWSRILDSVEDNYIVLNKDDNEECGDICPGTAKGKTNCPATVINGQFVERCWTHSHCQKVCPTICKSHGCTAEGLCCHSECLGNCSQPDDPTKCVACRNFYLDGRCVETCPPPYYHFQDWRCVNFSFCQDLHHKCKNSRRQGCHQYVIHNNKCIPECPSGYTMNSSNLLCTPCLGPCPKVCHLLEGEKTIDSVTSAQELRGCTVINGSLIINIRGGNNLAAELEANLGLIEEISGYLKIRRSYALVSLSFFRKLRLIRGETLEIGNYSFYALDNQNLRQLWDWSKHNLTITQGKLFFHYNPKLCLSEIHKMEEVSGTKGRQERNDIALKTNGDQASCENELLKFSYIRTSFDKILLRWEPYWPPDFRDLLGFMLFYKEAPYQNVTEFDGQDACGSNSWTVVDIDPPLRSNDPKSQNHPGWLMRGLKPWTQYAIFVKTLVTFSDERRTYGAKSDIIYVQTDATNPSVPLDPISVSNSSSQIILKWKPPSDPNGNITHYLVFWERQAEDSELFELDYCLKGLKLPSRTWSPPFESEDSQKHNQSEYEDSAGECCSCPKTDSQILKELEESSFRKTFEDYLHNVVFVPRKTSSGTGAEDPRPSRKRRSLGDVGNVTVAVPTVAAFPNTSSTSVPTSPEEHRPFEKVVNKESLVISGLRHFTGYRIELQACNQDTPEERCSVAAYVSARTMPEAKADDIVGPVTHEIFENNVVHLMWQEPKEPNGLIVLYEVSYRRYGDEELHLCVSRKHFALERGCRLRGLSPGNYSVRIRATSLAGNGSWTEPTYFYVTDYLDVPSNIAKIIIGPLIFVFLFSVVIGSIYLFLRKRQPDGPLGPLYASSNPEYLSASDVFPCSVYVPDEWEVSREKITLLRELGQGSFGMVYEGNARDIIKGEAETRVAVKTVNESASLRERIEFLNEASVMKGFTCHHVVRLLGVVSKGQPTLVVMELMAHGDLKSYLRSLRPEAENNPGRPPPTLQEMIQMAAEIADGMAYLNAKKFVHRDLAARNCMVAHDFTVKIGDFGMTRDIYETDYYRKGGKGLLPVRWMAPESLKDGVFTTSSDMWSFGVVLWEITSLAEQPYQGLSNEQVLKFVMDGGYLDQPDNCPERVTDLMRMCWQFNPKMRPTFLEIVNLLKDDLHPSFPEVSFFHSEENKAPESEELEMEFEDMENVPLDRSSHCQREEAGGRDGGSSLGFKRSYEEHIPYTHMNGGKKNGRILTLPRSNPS
# [38] = molecular target: DDR2 (Homo sapiens, UniProt Q16832)
# DDR2, sequence (Q16832 22-855): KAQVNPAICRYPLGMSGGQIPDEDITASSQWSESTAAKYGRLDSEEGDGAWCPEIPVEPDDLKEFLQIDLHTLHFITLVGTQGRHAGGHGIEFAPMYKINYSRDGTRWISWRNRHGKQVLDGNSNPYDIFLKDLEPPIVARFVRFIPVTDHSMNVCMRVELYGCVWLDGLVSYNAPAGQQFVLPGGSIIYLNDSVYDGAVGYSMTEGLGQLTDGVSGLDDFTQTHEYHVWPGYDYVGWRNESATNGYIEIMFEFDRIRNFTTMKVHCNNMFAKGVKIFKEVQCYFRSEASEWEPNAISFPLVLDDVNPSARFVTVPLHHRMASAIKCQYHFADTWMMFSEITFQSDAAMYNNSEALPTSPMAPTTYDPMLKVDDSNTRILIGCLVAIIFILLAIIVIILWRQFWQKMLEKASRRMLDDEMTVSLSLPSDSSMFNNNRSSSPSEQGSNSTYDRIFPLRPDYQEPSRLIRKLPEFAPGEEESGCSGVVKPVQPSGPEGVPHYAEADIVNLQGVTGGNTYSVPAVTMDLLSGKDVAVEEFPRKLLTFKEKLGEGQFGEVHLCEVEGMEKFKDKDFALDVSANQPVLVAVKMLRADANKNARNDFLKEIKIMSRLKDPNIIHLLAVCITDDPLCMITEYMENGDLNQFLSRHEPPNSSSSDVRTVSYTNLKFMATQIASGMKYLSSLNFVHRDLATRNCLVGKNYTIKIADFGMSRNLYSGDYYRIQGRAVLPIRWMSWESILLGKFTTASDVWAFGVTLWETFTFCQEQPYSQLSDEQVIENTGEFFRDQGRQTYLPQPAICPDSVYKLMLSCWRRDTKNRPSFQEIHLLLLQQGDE
# [39] = molecular target: ERK3 (Homo sapiens, UniProt Q16659)
# ERK3, sequence (Q16659 whole entry): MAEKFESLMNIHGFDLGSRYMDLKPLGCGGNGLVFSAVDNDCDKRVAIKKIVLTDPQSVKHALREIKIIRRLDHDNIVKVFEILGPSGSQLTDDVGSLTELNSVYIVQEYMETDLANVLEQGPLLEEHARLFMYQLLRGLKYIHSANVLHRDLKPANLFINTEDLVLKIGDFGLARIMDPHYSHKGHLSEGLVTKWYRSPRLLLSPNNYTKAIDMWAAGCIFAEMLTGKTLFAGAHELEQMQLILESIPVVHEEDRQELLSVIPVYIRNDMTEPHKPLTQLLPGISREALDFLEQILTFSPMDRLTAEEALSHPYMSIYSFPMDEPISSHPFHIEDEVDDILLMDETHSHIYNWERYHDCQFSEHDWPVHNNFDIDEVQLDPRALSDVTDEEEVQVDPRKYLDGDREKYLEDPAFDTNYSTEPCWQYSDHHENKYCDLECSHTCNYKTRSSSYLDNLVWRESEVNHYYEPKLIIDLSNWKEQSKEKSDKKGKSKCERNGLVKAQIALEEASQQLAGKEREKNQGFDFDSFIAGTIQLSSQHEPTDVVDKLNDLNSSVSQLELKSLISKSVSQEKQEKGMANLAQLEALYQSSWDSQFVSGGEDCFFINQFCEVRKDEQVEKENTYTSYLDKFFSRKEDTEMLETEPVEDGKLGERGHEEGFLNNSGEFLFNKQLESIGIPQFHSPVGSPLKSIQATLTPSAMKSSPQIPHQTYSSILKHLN
# CSNK1G1, sequence (Q9HCP0 whole entry): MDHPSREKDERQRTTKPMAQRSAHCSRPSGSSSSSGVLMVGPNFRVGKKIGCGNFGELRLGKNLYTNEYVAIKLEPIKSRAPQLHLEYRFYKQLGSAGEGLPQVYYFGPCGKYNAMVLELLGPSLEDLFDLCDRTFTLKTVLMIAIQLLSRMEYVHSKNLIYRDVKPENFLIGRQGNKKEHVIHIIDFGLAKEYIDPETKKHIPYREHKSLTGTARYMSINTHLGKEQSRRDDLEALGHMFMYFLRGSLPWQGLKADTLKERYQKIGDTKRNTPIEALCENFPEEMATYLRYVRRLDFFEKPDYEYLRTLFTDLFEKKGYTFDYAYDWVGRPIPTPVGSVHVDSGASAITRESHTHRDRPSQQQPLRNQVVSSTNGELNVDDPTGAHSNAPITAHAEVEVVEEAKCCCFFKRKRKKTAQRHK
structure (smiles),measurement,setting,value
"Nc1ncc(-c2nc3ccccc3o2)c(-c2ccncc2)n1 [Comparative Compound 324, 5-(1,3-benzoxazol-2-yl)-4-(pyridine-4-yl)pyrimidin-2-amine]",remaining binding at 10 µM,[1],93%
same,remaining binding at 10 µM,[2],100%
same,remaining binding at 10 µM,[3],97%
same,remaining binding at 10 µM,[4],86%
same,remaining binding at 10 µM,[5],89%
same,remaining binding at 10 µM,[6],99%
same,remaining binding at 10 µM,[7],86%
same,remaining binding at 10 µM,[8],87%
same,remaining binding at 10 µM,[9],100%
same,remaining binding at 10 µM,[10],88%
same,remaining binding at 10 µM,[11],63%
same,remaining binding at 10 µM,[12],89%
same,remaining binding at 10 µM,[13],65%
same,remaining binding at 10 µM,[14],100%
same,remaining binding at 10 µM,[15],96%
same,remaining binding at 10 µM,[16],95%
same,remaining binding at 10 µM,[17],99%
same,remaining binding at 10 µM,[18],99%
same,remaining binding at 10 µM,[19],56%
same,remaining binding at 10 µM,[20],100%
same,remaining binding at 10 µM,[21],93%
same,remaining binding at 10 µM,[22],83%
same,remaining binding at 10 µM,[23],100%
same,remaining binding at 10 µM,[24],99%
same,remaining binding at 10 µM,[25],86%
same,remaining binding at 10 µM,[26],100%
same,remaining binding at 10 µM,[27],100%
same,remaining binding at 10 µM,[28],60%
same,remaining binding at 10 µM,[29],33%
same,remaining binding at 10 µM,[30],100%
same,remaining binding at 10 µM,[31],100%
same,remaining binding at 10 µM,[32],95%
same,remaining binding at 10 µM,[33],96%
same,remaining binding at 10 µM,[34],100%
same,remaining binding at 10 µM,[35],90%
same,remaining binding at 10 µM,[36],80%
same,remaining binding at 10 µM,[37],100%
same,remaining binding at 10 µM,[38],100%
same,remaining binding at 10 µM,[39],100%
"CNc1c(C(N)=O)c2ccccn2c1C(=O)c1ccc(F)cc1 [Compound A, 2-methyl-amino-3-[(4-fluorophenyl)carbonyl]indolizine-1-carboxamide]",remaining binding at 10 µM,[1],88%
same,remaining binding at 10 µM,[2],88%
same,remaining binding at 10 µM,[3],86%
same,remaining binding at 10 µM,[4],86%
same,remaining binding at 10 µM,[5],75%
same,remaining binding at 10 µM,[6],92%
same,remaining binding at 10 µM,[7],71%
same,remaining binding at 10 µM,[8],77%
same,remaining binding at 10 µM,[9],100%
same,remaining binding at 10 µM,[10],90%
same,remaining binding at 10 µM,[11],100%
same,remaining binding at 10 µM,[12],100%
same,remaining binding at 10 µM,[13],64%
same,remaining binding at 10 µM,[14],100%
same,remaining binding at 10 µM,[15],77%
same,remaining binding at 10 µM,[16],86%
same,remaining binding at 10 µM,[17],95%
same,remaining binding at 10 µM,[18],90%
same,remaining binding at 10 µM,[19],100%
same,remaining binding at 10 µM,[20],95%
same,remaining binding at 10 µM,[21],45%
same,remaining binding at 10 µM,[22],71%
same,remaining binding at 10 µM,[23],43%
same,remaining binding at 10 µM,[24],92%
same,remaining binding at 10 µM,[25],89%
same,remaining binding at 10 µM,[26],99%
same,remaining binding at 10 µM,[27],96%
same,remaining binding at 10 µM,[28],33%
same,remaining binding at 10 µM,[29],15%
same,remaining binding at 10 µM,[30],88%
same,remaining binding at 10 µM,[31],89%
same,remaining binding at 10 µM,[32],42%
same,remaining binding at 10 µM,[33],87%
same,remaining binding at 10 µM,[34],100%
same,remaining binding at 10 µM,[35],82%
same,remaining binding at 10 µM,[36],49%
same,remaining binding at 10 µM,[37],100%
same,remaining binding at 10 µM,[38],65%
same,remaining binding at 10 µM,[39],88%
